Values quoted from earlier work as cited in patent US10980718B2, “Personal care compositions comprising poorly soluble compounds” (Conopco, Inc., priority 2016, dated 2021).

In the case of N[C@@H](CSSC[C@H](N)C(=O)O)C(=O)O [cystine], the “solubility of cystine in aqueous solutions by pH” value (aqueous solutions with pH less than 2 or pH above 8) is listed as “more soluble” and the “natural solubility limit of cystine” value (room temperature and neutral pH) is listed as 0.01 wt %.
